# Reference: ChEMBL document CHEMBL1123770, “Systematic synthesis and biological evaluation of alpha- and beta-D-lyxofuranosyl nucleosides of the five naturally occurring nucleic acid bases” (1987)
# What was measured:
# [1] = test system: HeLa; test: Minimum inhibitory concentration (MIC) required to reduce virus-induced cytopathogenicity by 50% against Coxsackie virus B4 in HeLa cells; assay type: functional; settings: Homo sapiens
# [2] = test system: HeLa; test: Minimum cytotoxic concentration (MCC) required to cause a microscopically detectable alteration of host cell morphology, when incubated with HeLa cells; assay type: functional; settings: Homo sapiens
# [3] = test system: Monkey; test: (§1) Minimum inhibitory concentration (MIC) required to reduce virus-induced cytopathogenicity by 50% against forest virus in African green monkey kidney (Vero B)cells; assay type: functional, Chlorocebus sabaeus; settings: Cercopithecidae
# [4] = Minimum cytotoxic concentration (MCC) required to cause a microscopically detectable alteration of host cell morphology, when incubated with PRK cells; assay type: functional; settings: Oryctolagus cuniculus
# [5] = test system: Vero; test: Minimum cytotoxic concentration (MCC) required to cause a microscopically detectable alteration of host cell morphology, when incubated with Vero B cells; assay type: functional; settings: Chlorocebus sabaeus
# [6] = test system: Vero; test: Minimum inhibitory concentration (MIC) required to reduce virus-induced cytopathogenicity by 50% against Coxsackie virus B4 in African green monkey kidney (Vero B)cells; assay type: functional, Chlorocebus sabaeus; settings: Chlorocebus sabaeus; read-out: MIC
# [7] = test system: WI-38; test: Minimum cytotoxic concentration (MCC) required to cause a microscopically detectable alteration of host cell morphology, when incubated with WI-38 cells; assay type: functional; settings: Homo sapiens
# [8] = test system: WI-38; test: Minimum inhibitory concentration (MIC) required to reduce virus-induced cytopathogenicity by 50% against Rhinovirus 9 in human diploid (WI-38)cells; assay type: functional; settings: Homo sapiens; read-out: MIC
# [9] = test system: WI-38; test: Minimum inhibitory concentration (MIC) required to reduce virus-induced cytopathogenicity by 50% against Rhinovirus-1A in human diploid (WI-38)cells; assay type: functional
# [10] = test system: Vero; test: (§2) Minimum inhibitory concentration (MIC) required to reduce virus-induced cytopathogenicity by 50% against Parainfluenza virus-3 in African green monkey kidney (Vero B)cells; assay type: functional, Chlorocebus sabaeus; settings: Chlorocebus sabaeus; read-out: MIC
# [11] = test system: Vero; test: Minimum inhibitory concentration (MIC) required to reduce virus-induced cytopathogenicity by 50% against Reo virus-1 in African green monkey kidney (Vero B)cells; assay type: functional, Chlorocebus sabaeus; settings: Chlorocebus sabaeus; read-out: MIC
# [12] = test system: Vero; test: Minimum inhibitory concentration (MIC) required to reduce virus-induced cytopathogenicity by 50% against Sindbis virus in African green monkey kidney (Vero B)cells; assay type: functional; settings: Chlorocebus sabaeus
# [13] = species on record: Oryctolagus cuniculus; test: Minimum inhibitory concentration (MIC) required to reduce virus-induced cytopathogenicity by 50% against G strain of Herpes simplex virus-2 in primary rabbit kidney cells; assay type: functional; settings: Oryctolagus cuniculus; read-out: MIC
# [14] = species on record: Oryctolagus cuniculus; test: Minimum inhibitory concentration (MIC) required to reduce virus-induced cytopathogenicity by 50% against KOS strain of Herpes simplex virus-1 in primary rabbit kidney cells; assay type: functional
# [15] = test system: HeLa; test: Minimum inhibitory concentration (MIC) required to reduce virus-induced cytopathogenicity by 50% against Vesicular stomatitis virus in HeLa cells; assay type: functional; settings: Homo sapiens
# [16] = test system: Vero; test: as §1; assay type: functional; settings: Chlorocebus sabaeus
# [17] = species on record: Oryctolagus cuniculus; test: Minimum inhibitory concentration (MIC) required to reduce virus-induced cytopathogenicity by 50% against Vaccinia virus in primary rabbit kidney cells; assay type: functional; settings: Oryctolagus cuniculus; read-out: MIC
# [18] = species on record: Oryctolagus cuniculus; test: Minimum inhibitory concentration (MIC) required to reduce virus-induced cytopathogenicity by 50% against Vesicular stomatitis virus in primary rabbit kidney cells; assay type: functional
# [19] = test system: Human respirovirus 3; test: as §2; assay type: functional
# [20] = species on record: Mus musculus; test: Number of mice normal, without lesion after HSV-1 infection observed from day 0 to day 3; assay type: functional
# [21] = species on record: Mus musculus; test: Number of mice normal, without lesion after HSV-2 infection observed from day 0 to day 3; assay type: functional
# [22] = species on record: Mus musculus; test: Number of mice normal, without lesion after HSV-2 infection observed from day 12 to day 20; assay type: functional
# [23] = species on record: Mus musculus; test: Survival rate at 20th day expressed as number of mice survived infected with HSV-1; out of 10; assay type: functional
# [24] = species on record: Mus musculus; test: Survival rate at 20th day expressed as number of mice survived infected with HSV-2; out of 10; assay type: functional
# [25] = Inhibitory effect on 196 strain of Herper simplex virus-2 yield, in primary rabbit kidney cell culture 4 ug/mL concentration after 24 hours.; assay type: functional, Oryctolagus cuniculus
# [26] = Inhibitory effect on 196 strain of Herper simplex virus-2 yield, in primary rabbit kidney cell culture 4 ug/mL concentration after 48 hours.; assay type: functional, Oryctolagus cuniculus
# [27] = Inhibitory effect on KOS strain of Herper simplex virus-1 yield, in primary rabbit kidney cell culture 0.04 ug/mL concentration after 48 hours.; assay type: functional, Oryctolagus cuniculus
# [28] = Inhibitory effect on KOS strain of Herper simplex virus-1 yield, in primary rabbit kidney cell culture 0.1 ug/mL concentration after 48 hours.; assay type: functional, Oryctolagus cuniculus
# [29] = Inhibitory effect on KOS strain of Herper simplex virus-1 yield, in primary rabbit kidney cell culture 0.4 ug/mL concentration after 48 hours.; assay type: functional, Oryctolagus cuniculus
# [30] = Inhibitory effect on KOS strain of Herper simplex virus-1 yield, in primary rabbit kidney cell culture 1 ug/mL concentration after 48 hours.; assay type: functional, Oryctolagus cuniculus
# [31] = Inhibitory effect on KOS strain of Herper simplex virus-1 yield, in primary rabbit kidney cell culture 4 ug/mL concentration after 48 hours.; assay type: functional, Oryctolagus cuniculus
# [32] = Inhibitory effect on KOS strain of Herper simplex virus-1 yield, in primary rabbit kidney cell culture at 0.04 ug/mL concentration after 24 hours; assay type: functional, Oryctolagus cuniculus
# [33] = Inhibitory effect on KOS strain of Herper simplex virus-1 yield, in primary rabbit kidney cell culture at 0.4 ug/mL concentration after 24 hours; assay type: functional, Oryctolagus cuniculus
# [34] = Inhibitory effect on KOS strain of Herper simplex virus-1 yield, in primary rabbit kidney cell culture at 1 ug/mL concentration after 24 hours; assay type: functional, Oryctolagus cuniculus
# [35] = Inhibitory effect on KOS strain of Herper simplex virus-1 yield, in primary rabbit kidney cell culture at 4 ug/mL concentration after 24 hours; assay type: functional, Oryctolagus cuniculus
# [36] = Inhibitory effect on 196 strain of Herper simplex virus-2 yield, in primary rabbit kidney cell culture 0.04 ug/mL concentration after 24 hours.; assay type: functional, Oryctolagus cuniculus
# [37] = Inhibitory effect on 196 strain of Herper simplex virus-2 yield, in primary rabbit kidney cell culture 0.04 ug/mL concentration after 48 hours.; assay type: functional, Oryctolagus cuniculus
# [38] = Inhibitory effect on 196 strain of Herper simplex virus-2 yield, in primary rabbit kidney cell culture 0.1 ug/mL concentration after 24 hours.; assay type: functional, Oryctolagus cuniculus
# [39] = Inhibitory effect on 196 strain of Herper simplex virus-2 yield, in primary rabbit kidney cell culture 0.1 ug/mL concentration after 48 hours.; assay type: functional, Oryctolagus cuniculus
# [40] = Inhibitory effect on 196 strain of Herper simplex virus-2 yield, in primary rabbit kidney cell culture 0.4 ug/mL concentration after 24 hours.; assay type: functional, Oryctolagus cuniculus
# [41] = Inhibitory effect on 196 strain of Herper simplex virus-2 yield, in primary rabbit kidney cell culture 0.4 ug/mL concentration after 48 hours.; assay type: functional, Oryctolagus cuniculus
# [42] = Inhibitory effect on 196 strain of Herper simplex virus-2 yield, in primary rabbit kidney cell culture 1 ug/mL concentration after 24 hours.; assay type: functional, Oryctolagus cuniculus
# [43] = Inhibitory effect on 196 strain of Herper simplex virus-2 yield, in primary rabbit kidney cell culture 1 ug/mL concentration after 48 hours.; assay type: functional, Oryctolagus cuniculus
# [44] = species on record: Mus musculus; test: Number of mice normal, without lesion after HSV-1 infection observed from day 12 to day 20; assay type: functional
# [45] = Inhibitory effect on KOS strain of Herper simplex virus-1 yield, in primary rabbit kidney cell culture at 0.1 ug/mL concentration after 24 hours; assay type: functional, Oryctolagus cuniculus
# [46] = species on record: Mus musculus; test: Number of mice with skin lesions plus paralysis, after HSV-1 infection observed from day 12 to day 20; assay type: functional
# [47] = species on record: Mus musculus; test: Number of mice dead, after HSV-1 infection observed from day 12 to day 20; assay type: functional
# [48] = species on record: Mus musculus; test: Number of mice dead, after HSV-2 infection observed from day 12 to day 20; assay type: functional
# [49] = Inhibitory effect on 196 strain of Herper simplex virus-2 yield, in primary rabbit kidney cell culture 40 ug/mL concentration after 24 hours.; assay type: functional, Oryctolagus cuniculus
# [50] = Inhibitory effect on 196 strain of Herper simplex virus-2 yield, in primary rabbit kidney cell culture 40 ug/mL concentration after 48 hours.; assay type: functional, Oryctolagus cuniculus
# [51] = Inhibitory effect on KOS strain of Herper simplex virus-1 yield, in primary rabbit kidney cell culture 10 ug/mL concentration after 48 hours.; assay type: functional, Oryctolagus cuniculus
# [52] = Inhibitory effect on KOS strain of Herper simplex virus-1 yield, in primary rabbit kidney cell culture 40 ug/mL concentration after 48 hours.; assay type: functional, Oryctolagus cuniculus
# [53] = Inhibitory effect on KOS strain of Herper simplex virus-1 yield, in primary rabbit kidney cell culture at 10 ug/mL concentration after 24 hours; assay type: functional, Oryctolagus cuniculus
# [54] = Inhibitory effect on KOS strain of Herper simplex virus-1 yield, in primary rabbit kidney cell culture at 40 ug/mL concentration after 24 hours; assay type: functional, Oryctolagus cuniculus
# [55] = Inhibitory effect on 196 strain of Herper simplex virus-2 yield, in primary rabbit kidney cell culture 10 ug/mL concentration after 24 hours.; assay type: functional, Oryctolagus cuniculus
# [56] = Inhibitory effect on 196 strain of Herper simplex virus-2 yield, in primary rabbit kidney cell culture 10 ug/mL concentration after 48 hours.; assay type: functional, Oryctolagus cuniculus
SMILES,MIC [1] [µg/mL],MCC [2] [µg/mL],MCC [4] [µg/mL],MCC [5] [µg/mL],MIC [6] [µg/mL],MCC [7] [µg/mL],MIC [8] [µg/mL],MIC [9] [µg/mL],MIC [11] [µg/mL],MIC [12] [µg/mL],MIC [13] [µg/mL],MIC [14] [µg/mL],No. of mice [20],No. of mice [21],No. of mice [22],Survival rate [23],Survival rate [24],Virus yield [25] [log pfu ml-1],Virus yield [26] [log pfu ml-1],Virus yield [31] [log pfu ml-1],other results
Cc1cn([C@@H]2O[C@H](CO)[C@H](O)[C@@H]2O)c(=O)[nH]c1=O,> 400,> 400,> 400,> 400,> 400,> 400,> 150,> 400,> 400,> 400,> 400,> 400,,,,,,,,,MIC [3]: > 400 µg/mL; MIC [10]: > 400 µg/mL
Nc1nccc2c1ncn2[C@@H]1C[C@H](CO)[C@@H](O)[C@H]1O [3-DEAZAARISTEROMYCIN A],> 400,> 400,> 400,> 400,0.04,> 400,> 400,> 400,1,70,150,> 400,,,,,,,,,MIC [15]: 0.7 µg/mL; MIC [16]: > 200 µg/mL; MIC [17]: 0.7 µg/mL; MIC [18]: 0.2 µg/mL; MIC [19]: 0.7 µg/mL
Nc1nc2c(ncn2COCCO)c(=O)[nH]1 [ACYCLOVIR],,,,,,,,,,,,,10,10,5,10,5,<2,3.8,3.3,Virus yield [27]: 5.9 log pfu ml-1; Virus yield [28]: 5.6 log pfu ml-1; Virus yield [29]: 5 log pfu ml-1; Virus yield [30]: 5.3 log pfu ml-1; Virus yield [32]: 5.6 log pfu ml-1; Virus yield [33]: 4.1 log pfu ml-1; Virus yield [34]: 3.6 log pfu ml-1; Virus yield [35]: 2 log pfu ml-1; Virus yield [36]: 5.8 log pfu ml-1; Virus yield [37]: 5.7 log pfu ml-1; Virus yield [38]: 4.8 log pfu ml-1; Virus yield [39]: 5.6 log pfu ml-1; Virus yield [40]: 4.1 log pfu ml-1; Virus yield [41]: 5 log pfu ml-1; Virus yield [42]: 3.1 log pfu ml-1; Virus yield [43]: 5.3 log pfu ml-1; No. of mice [44]: 10; Virus yield [45]: 5.2 log pfu ml-1
Nc1ncnc2c1ncn2[C@@H]1O[C@H](CO)[C@@H](O)[C@H]1O [ADENOSINE],,,,,,,,,,,,,10,10,3,4,3,5,5.7,6.8,No. of mice [46]: 1; No. of mice [47]: 6; No. of mice [48]: 7; Virus yield [49]: <1.6 log pfu ml-1; Virus yield [50]: 4.3 log pfu ml-1; Virus yield [51]: 6.8 log pfu ml-1; Virus yield [52]: 5.5 log pfu ml-1; Virus yield [53]: 5.7 log pfu ml-1; Virus yield [54]: 3 log pfu ml-1; Virus yield [35]: 6.7 log pfu ml-1; Virus yield [55]: 4.7 log pfu ml-1; Virus yield [56]: 5.2 log pfu ml-1; No. of mice [44]: 3
